Measured values: ChEMBL document CHEMBL1201862, “PubChem BioAssay data set” (2004)
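All cell lines were grown in 96-well plates and treated with compound for 48 hours. At the GI50, growth is halved.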 Calls of active or inactive are those of the source. No stated cut-off is given here; in the data, active = GI50 up to about 1.1 µM and inactive = higher.

Assays:
Assay in all cases: growth of human tumour cells (NCI), 48 h
BT-549 = test system: BT-549
HL-60 = test system: HL-60
HT-29 = test system: HT-29
K562 = test system: K562
KM-20L2 = test system: KM-20L2
LOX IMVI = test system: LOX IMVI
LXFL 529 = test system: LXFL 529
NCI-H226 = test system: NCI-H226
NCI-H460 = test system: NCI-H460
OVCAR-3 = test system: OVCAR-3
RPMI-8226 = test system: RPMI-8226
SF-268 = test system: SF-268
SK-MEL-2 = test system: SK-MEL-2
SNB-19 = test system: SNB-19
T47D = test system: T47D
TK-10 = test system: TK-10
U-251 = test system: U-251
UACC-257 = test system: UACC-257
UACC-62 = test system: UACC-62
XF498 = test system: XF498

Row | SMILES | GI50 (BT-549) | GI50 (HL-60) | GI50 (HT-29) | GI50 (K562) | GI50 (KM-20L2) | GI50 (LOX IMVI) | GI50 (LXFL 529) | GI50 (NCI-H226) | GI50 (NCI-H460) | GI50 (OVCAR-3) | GI50 (RPMI-8226) | GI50 (SF-268) | GI50 (SK-MEL-2) | GI50 (SNB-19) | GI50 (T47D) | GI50 (TK-10) | GI50 (U-251) | GI50 (UACC-257) | GI50 (UACC-62) | GI50 (XF498)
1 | COC(=O)/C(=C/c1ccc(OC)cc1)c1cc(OC)c(OC)c(OC)c1 | 34 µM (inactive) | 0.406 µM (active) | 0.524 µM (active) | 0.366 µM (active) | 1.12 µM (inactive) | 4.42 µM (inactive) | 3.73 µM (inactive) | 6.55 µM (inactive) | 5.11 µM (inactive) | 0.527 µM (active) | 2.52 µM (inactive) | 6.01 µM (inactive) | 3.18 µM (inactive) | 3.62 µM (inactive) | 7.13 µM (inactive) | 5.62 µM (inactive) | 2 µM (inactive) | 7.83 µM (inactive) | 0.631 µM (active) | 4.89 µM (inactive)
2 | O=C(CNC(=O)OCc1ccccc1)Oc1ccccc1 |  | > 100 µM (inactive) | > 100 µM (inactive) | > 100 µM (inactive) | > 100 µM (inactive) | > 100 µM (inactive) | > 100 µM (inactive) | > 100 µM (inactive) | > 100 µM (inactive) | > 100 µM (inactive) | > 100 µM (inactive) | > 100 µM (inactive) | > 100 µM (inactive) |  |  | > 100 µM (inactive) | > 100 µM (inactive) | > 100 µM (inactive) | > 100 µM (inactive) | > 100 µM (inactive)
3 | COc1ccc(/C=C\c2cc(OC)c(OC)c(OC)c2)cc1OC(=O)CC(N)C(=O)O (configuration not stated) | 0.00646 µM (active) | 0.000899 µM (active) | 0.865 µM (active) | 0.000321 µM (active) | 3.7 µM (inactive) | 0.00254 µM (active) | 0.00191 µM (active) | 0.054 µM (active) | 0.00219 µM (active) | 0.00224 µM (active) | 0.00148 µM (active) | 0.00305 µM (active) |  | 0.0118 µM (active) | < 0.01 µM (active) | 0.519 µM (active) | 0.00262 µM (active) | 0.00171 µM (active) | 0.00113 µM (active) | 0.00239 µM (active)
4 | COc1cccc(N2C(=O)C3C4C=C5c6ccccc6N(c6ccccc6)C5(C3C2=O)[C@H]2C(=O)N(c3cccc(OC)c3)C(=O)[C@@H]42)c1 (some centres not stated) |  | > 100 µM (inactive) | > 100 µM (inactive) | > 100 µM (inactive) | > 100 µM (inactive) | > 100 µM (inactive) | > 100 µM (inactive) | > 100 µM (inactive) | > 100 µM (inactive) | > 100 µM (inactive) | > 100 µM (inactive) | > 100 µM (inactive) | > 100 µM (inactive) | > 100 µM (inactive) |  | > 100 µM (inactive) | > 100 µM (inactive) | > 100 µM (inactive) | > 100 µM (inactive) | > 100 µM (inactive)
5 | CC(=O)OCCOCNC(=S)N/N=C(\C)c1cccs1 |  | > 100 µM (inactive) | > 100 µM (inactive) | > 100 µM (inactive) | > 100 µM (inactive) | > 100 µM (inactive) | > 100 µM (inactive) | > 100 µM (inactive) | > 100 µM (inactive) | > 100 µM (inactive) | > 100 µM (inactive) | > 100 µM (inactive) | > 100 µM (inactive) | > 100 µM (inactive) |  | > 100 µM (inactive) | > 100 µM (inactive) | > 100 µM (inactive) | > 100 µM (inactive) | > 100 µM (inactive)
6 | Cc1cc(Cl)ccc1N1C(=O)C(=O)C(c2nc3ccccc3s2)C(=O)C1=O |  | > 100 µM (inactive) | > 100 µM (inactive) | > 100 µM (inactive) | > 100 µM (inactive) |  | > 100 µM (inactive) | > 100 µM (inactive) | > 100 µM (inactive) | > 100 µM (inactive) | > 100 µM (inactive) | > 100 µM (inactive) | > 100 µM (inactive) | > 100 µM (inactive) |  | > 100 µM (inactive) | > 100 µM (inactive) | > 100 µM (inactive) | > 100 µM (inactive) | > 100 µM (inactive)
7 | CC(=O)n1c2c(c(=O)n1-c1ccccc1)[S+]([O-])CCC2 (configuration not stated) |  | 24.4 µM (inactive) | 69.5 µM (inactive) | 26.7 µM (inactive) | > 71.6 µM (inactive) | > 58.3 µM (inactive) | 28.7 µM (inactive) | > 100 µM (inactive) | 16.7 µM (inactive) | 57.1 µM (inactive) | 6.08 µM (inactive) | > 100 µM (inactive) | > 84.7 µM (inactive) | > 100 µM (inactive) |  | > 100 µM (inactive) | > 100 µM (inactive) | 46.7 µM (inactive) | 20.3 µM (inactive) | > 76.7 µM (inactive)
8 | COc1cc(-c2cc(CCC(=O)Nc3ccccc3[N+](=O)[O-])n(-c3ccc([N+](=O)[O-])cc3[N+](=O)[O-])n2)ccc1O |  | > 10 µM (inactive) | > 10 µM (inactive) | 82.6 µM (inactive) | > 10 µM (inactive) | > 10 µM (inactive) | 44.7 µM (inactive) | > 10 µM (inactive) | > 10 µM (inactive) | > 10 µM (inactive) | > 10 µM (inactive) | > 10 µM (inactive) | > 10 µM (inactive) | > 10 µM (inactive) |  | > 10 µM (inactive) | > 10 µM (inactive) | > 10 µM (inactive) | 38.4 µM (inactive) | > 100 µM (inactive)
9 | COc1ccc(-c2cc(O)c3cc4c(cc3n2)OCO4)cc1OC |  | > 100 µM (inactive) | > 100 µM (inactive) | > 100 µM (inactive) | > 100 µM (inactive) | > 100 µM (inactive) | > 100 µM (inactive) | > 100 µM (inactive) | > 100 µM (inactive) | > 100 µM (inactive) | > 100 µM (inactive) | > 100 µM (inactive) | > 100 µM (inactive) | > 100 µM (inactive) |  | > 100 µM (inactive) | > 100 µM (inactive) |  | > 100 µM (inactive) | > 100 µM (inactive)
10 | CCOC(=O)C1Cc2c(ccc(OC)c2OC)C(=O)C1N (configuration not stated) |  | > 100 µM (inactive) | > 100 µM (inactive) | > 100 µM (inactive) | > 100 µM (inactive) | > 100 µM (inactive) | 94.8 µM (inactive) | > 100 µM (inactive) | > 100 µM (inactive) | 93.1 µM (inactive) | > 100 µM (inactive) |  | > 100 µM (inactive) | > 100 µM (inactive) |  | > 100 µM (inactive) | > 100 µM (inactive) | > 100 µM (inactive) | > 100 µM (inactive) | > 100 µM (inactive)
11 | CCc1ccccc1NC(=O)C(=O)C1C(=O)N(c2ccccc2)N=C1N (configuration not stated) |  | 72.4 µM (inactive) | > 100 µM (inactive) | > 100 µM (inactive) | > 100 µM (inactive) | > 100 µM (inactive) | > 100 µM (inactive) | > 100 µM (inactive) | > 100 µM (inactive) | > 100 µM (inactive) | > 100 µM (inactive) | > 100 µM (inactive) | > 100 µM (inactive) | > 100 µM (inactive) |  | > 100 µM (inactive) | > 100 µM (inactive) | > 100 µM (inactive) | > 100 µM (inactive) | > 100 µM (inactive)
12 | O=[N+]([O-])c1ccc(-c2cnc3ccccn23)cc1 |  | 44.2 µM (inactive) | > 100 µM (inactive) | > 100 µM (inactive) | > 100 µM (inactive) | > 100 µM (inactive) | > 100 µM (inactive) | > 100 µM (inactive) | > 100 µM (inactive) | > 100 µM (inactive) | 52.6 µM (inactive) | > 100 µM (inactive) | > 100 µM (inactive) | > 100 µM (inactive) |  |  | > 100 µM (inactive) | > 100 µM (inactive) | > 100 µM (inactive) | > 100 µM (inactive)
13 | C[N+](C)(C)CC(=O)N/N=C/c1oc(-c2c(O)ccc3ccccc23)c(-c2c(O)ccc3ccccc23)c1[N+](=O)[O-] |  | 18.5 µM (inactive) | 13.2 µM (inactive) | 12.6 µM (inactive) | 3.1 µM (inactive) | 11.6 µM (inactive) | 14.8 µM (inactive) | 17.4 µM (inactive) | 19.5 µM (inactive) | 16.3 µM (inactive) | 27 µM (inactive) | 12.4 µM (inactive) | 16.2 µM (inactive) | 28.2 µM (inactive) |  | 26.3 µM (inactive) | 15 µM (inactive) | 18.5 µM (inactive) | 1.53 µM (inactive) | 20.6 µM (inactive)
14 | COc1cc2c(cc1O)[C@H](C)C(c1ccc(OC)c(OC)c1)O2 (some centres not stated) |  | 3.41 µM (inactive) | 18 µM (inactive) | 2.98 µM (inactive) | 18.8 µM (inactive) | 4.13 µM (inactive) | 9.35 µM (inactive) | 12.4 µM (inactive) | 2.13 µM (inactive) | 5.66 µM (inactive) | 8.2 µM (inactive) | 44.4 µM (inactive) | 3.1 µM (inactive) | 1.68 µM (inactive) |  | 15.7 µM (inactive) | 5.87 µM (inactive) | 10.9 µM (inactive) | 3.09 µM (inactive) | 10.1 µM (inactive)
15 | Cc1ccc(-n2c(C)nc3c2C(=O)c2ccccc2C3=O)cc1 |  | 9.14 µM (inactive) | 11.9 µM (inactive) | 5.86 µM (inactive) | 18.3 µM (inactive) | 7.98 µM (inactive) | 9.84 µM (inactive) | > 100 µM (inactive) | 4.44 µM (inactive) | 21.8 µM (inactive) |  | 7.41 µM (inactive) | 40.7 µM (inactive) | 71.9 µM (inactive) |  | > 100 µM (inactive) | 9.46 µM (inactive) | 19.1 µM (inactive) | 8.57 µM (inactive) | 50.5 µM (inactive)
